Where two headings read alike, the source gives them in different places.
Tests used:
Alternaria brassicae = assay: In vivo preventive test on Alternaria brassicae (leaf spot on radish), Examples A and R1; settings: for pest or weed control at 500 ppm / pest or weed control at 100 ppm: Alternaria brassicae, 144 h
[1] = Measurement of LogP values by HPLC on reversed phase columns (EEC directive 79/831 Annex V.A8); format: physicochemical; settings: method [a]: LC-UV, acidic range, 0.1% formic acid in water and acetonitrile as eluent; Table 1
Method: Measurement of Log P values was performed as outlined above.

Sphaerotheca fuliginea = assay: In vivo preventive test on Sphaerotheca fuliginea (powdery mildew on cucurbits), Examples F and R6; settings: Podosphaera fuliginea, 360 h, preventive spray, evaluated 15 days after inoculation
Uromyces appendiculatus = assay: In vivo preventive test on Uromyces appendiculatus (bean rust), Examples G and R7; settings: 264 h, preventive spray, evaluated 11 days after inoculation
Puccinia recondita = assay: In vivo preventive test on Puccinia recondita (brown rust on wheat), Examples C and R3; settings: Puccinia recondita, 264 h, preventive spray, evaluated 11 days after inoculation
Septoria tritici = assay: In vivo preventive test on Septoria tritici (leaf spot on wheat), Examples E, Q3 and R5; settings: Zymoseptoria tritici, 576 h, preventive spray, evaluated 24 days after inoculation
Botrytis cinerea = assay: In vivo preventive test on Botrytis cinerea (grey mould) on gherkin, Examples B, Q1 and R2; settings: Botrytis cinerea, 500 ppm of active ingredient, preventive spray, evaluated 4 to 5 days after inoculation, read-out: efficacy
Phakopsora pachyrhizi = assay: In vivo preventive Phakopsora test (soybeans), Example I; settings: 168 h, 100 ppm of active ingredient, preventive spray, evaluated 7 days after inoculation, read-out: efficacy
Alternaria solani = assay: In vivo preventive Alternaria test (tomatoes), Example H; settings: 72 h, 100 ppm of active ingredient, preventive spray, evaluated 3 days after inoculation, read-out: efficacy
Pyrenophora teres = assay: In vivo preventive test on Pyrenophora teres (net blotch on barley), Examples D, Q2 and R4; settings: Pyrenophora teres, 336 h, 500 ppm of active ingredient, preventive spray, evaluated 14 days after inoculation, read-out: efficacy
[2] = test system: Blumeria graminis fsp. hordei; assay: In vivo preventive Blumeria test (barley), Example K; settings: 168 h, 500 ppm of active ingredient, preventive spray, evaluated 7 days after inoculation, read-out: efficacy
Text: After the spray coating has been dried, the plants are dusted with spores of Blumeria graminis fsp. hordei.

[3] = 500 ppm of active ingredient, gherkin, read-out: efficacy
[4] = 500 ppm of active ingredient, preventive spray, evaluated 6 days after inoculation, read-out: efficacy
[5] = Example R1, rate of application 100 ppm, read-out: Efficacy in %
[6] = Example R1, rate of application 500 ppm, read-out: Efficacy in %
[7] = 500 ppm of active ingredient, bean, read-out: efficacy
[8] = 500 ppm of active ingredient, wheat, read-out: efficacy

SMILES | chromatographic logP [1] | pest or weed control at 500 ppm (Sphaerotheca fuliginea; [3]) | pest or weed control at 500 ppm (Alternaria brassicae; [4]) | pest or weed control at 100 ppm (Alternaria brassicae; [5]) | pest or weed control at 500 ppm (Alternaria brassicae; [6]) | pest or weed control at 500 ppm (Uromyces appendiculatus; [7]) | pest or weed control at 500 ppm (Puccinia recondita; [8]) | pest or weed control at 500 ppm (Septoria tritici; [8]) | pest or weed control at 500 ppm (Botrytis cinerea) | pest or weed control at 500 ppm (Pyrenophora teres) | other results
OC(Cc1ccc(Cl)cc1F)(Cn1ccc(Cl)c1)C1(Cl)CC1 (racemic) [reference compound] |  |  |  |  |  |  |  |  |  |  | Efficacy in % (Alternaria brassicae; Example R1, rate of application 100 ppm): 0%; Efficacy in % (Alternaria brassicae; Example R1, rate of application 500 ppm): 0%
Cc1cncn1CC(O)(Cc1ccccc1Cl)C1(Cl)CC1 (centres unmarked) [Example I-03] | 1.72 | 90 to 100% | 80 to 89% | 0% | 83% | 90 to 100% | 80 to 89% | 90 to 100% |  |  | pest or weed control at 100 ppm (Sphaerotheca fuliginea; Example R6, gherkin, 100 ppm, read-out: Efficacy in %): 85%; pest or weed control at 500 ppm (Sphaerotheca fuliginea; Example R6, gherkin, 500 ppm, read-out: Efficacy in %): 100%; pest or weed control at 100 ppm (Uromyces appendiculatus; Example R7, bean, 100 ppm, read-out: Efficacy in %): 81%; pest or weed control at 500 ppm (Uromyces appendiculatus; Example R7, bean, 500 ppm, read-out: Efficacy in %): 100%; pest or weed control at 100 ppm (Puccinia recondita; Example R3, wheat, 100 ppm, read-out: Efficacy in %): 86%; pest or weed control at 500 ppm (Puccinia recondita; Example R3, wheat, 500 ppm, read-out: Efficacy in %): 86%; pest or weed control at 100 ppm (Septoria tritici; Example R5, wheat, 100 ppm, read-out: Efficacy in %): 83%; pest or weed control at 500 ppm (Septoria tritici; Example R5, wheat, 500 ppm, read-out: Efficacy in %): 100%
OC(Cn1cncc1Cl)(C(F)c1ccccc1Cl)C1(Cl)CC1 (centres unmarked) [Example I-05] | 2.17 | 90 to 100% |  |  |  | 90 to 100% | 80 to 89% | 80 to 89% | 90 to 100% |  | pest or weed control at 100 ppm (Phakopsora pachyrhizi): 90 to 100%; pest or weed control at 100 ppm (Alternaria solani): 70 to 79%
Cc1cncn1CC(O)(C(F)c1ccccc1Cl)C1(Cl)CC1 (centres unmarked) [Example I-13] | 1.75 | 90 to 100% | 70 to 79% |  |  |  | 80 to 89% | 90 to 100% | 80 to 89% | 80 to 89% | 
OC(Cc1ccccc1Cl)(Cn1cncc1C(F)(F)F)C1(Cl)CC1 (centres unmarked) [Example I-15] | 3.63 | 90 to 100% | 90 to 100% |  |  | 90 to 100% | 80 to 89% | 90 to 100% | 70 to 79% | 90 to 100% | 
CC(=O)c1cncn1CC(O)(Cc1ccccc1Cl)C1(Cl)CC1 (centres unmarked) [Example I-19] |  | 90 to 100% | 80 to 89% |  |  |  | 90 to 100% | 90 to 100% |  | 80 to 89% | 
OC(Cc1ccccc1Cl)(Cn1cncc1-c1cccs1)C1(Cl)CC1 (centres unmarked) [Example I-20] |  | 90 to 100% | 80 to 89% |  |  | 90 to 100% | 80 to 89% | 80 to 89% |  |  | 
OC(Cn1cncc1Br)(C(F)c1ccccc1Cl)C1(Cl)CC1 (centres unmarked) [Example I-23] | 2.32 | 90 to 100% | 80 to 89% |  |  | 90 to 100% | 90 to 100% | 90 to 100% |  | 80 to 89% | pest or weed control at 100 ppm (Phakopsora pachyrhizi): 90 to 100%
OC(Cc1ccc(Br)cc1Cl)(Cn1cncc1Cl)C1(Cl)CC1 (centres unmarked) [Example I-43] |  | 90 to 100% |  |  |  | 90 to 100% | 90 to 100% | 90 to 100% | 90 to 100% | 90 to 100% | pest or weed control at 100 ppm (Phakopsora pachyrhizi): 90 to 100%; pest or weed control at 500 ppm [2]: 80 to 89%; pest or weed control at 100 ppm (Alternaria solani): 80 to 89%
Cc1ccccc1CC(O)(Cn1cncc1C#N)C1(Cl)CC1 (centres unmarked) [Example I-54] |  | 90 to 100% | 80 to 89% |  |  | 90 to 100% | 80 to 89% | 90 to 100% | 90 to 100% | 80 to 89% | 
COc1ccccc1CC(O)(Cn1cncc1C#N)C1(Cl)CC1 (centres unmarked) [Example I-55] | 2.93 | 90 to 100% | 80 to 89% |  |  | 90 to 100% | 90 to 100% | 90 to 100% | 90 to 100% | 80 to 89% | 
OC(Cc1cccc(Cl)c1Cl)(Cn1cncc1Cl)C1(Cl)CC1 (centres unmarked) [Example I-66] | 2.69 | 90 to 100% | 70 to 79% |  |  | 90 to 100% | 90 to 100% | 90 to 100% | 70 to 79% | 90 to 100% | 
OC(Cc1ccnc(Cl)c1)(Cn1cncc1Cl)C1(Cl)CC1 (centres unmarked) [Example I-75] | 1.62 | 90 to 100% |  |  |  | 90 to 100% | 70 to 79% | 90 to 100% | 80 to 89% | 80 to 89% | pest or weed control at 500 ppm [2]: 90 to 100%
N#Cc1cncn1CC(O)(Cc1ccccc1Cl)C1CC1 (centres unmarked) [Example I-80] | 2.57 | 90 to 100% |  |  |  | 90 to 100% | 80 to 89% | 90 to 100% |  | 80 to 89% | pest or weed control at 500 ppm [2]: 90 to 100%
OC(Cc1ccc(F)cc1)(Cn1cncc1Cl)C1(Cl)CC1 (centres unmarked) [Example I-158] | 2.13 | 90 to 100% |  |  |  | 90 to 100% | 80 to 89% | 90 to 100% | 90 to 100% | 90 to 100% | pest or weed control at 100 ppm (Phakopsora pachyrhizi): 90 to 100%; pest or weed control at 100 ppm (Alternaria solani): 90 to 100%
OC(Cc1ccccc1Cl)(Cn1cnc(Br)c1)C1(Cl)CC1 (centres unmarked) [drawing 59, reference compound] |  |  |  | 0% | 40% |  |  |  |  |  | 
Cc1cn(CC(O)(Cc2ccccc2Cl)C2(Cl)CC2)cn1 (centres unmarked) [drawing 61, reference compound] |  |  |  | 0% | 0% |  |  |  |  |  | 
OC(Cc1ccccc1F)(Cn1cnc(Cl)c1)C1(Cl)CC1 (centres unmarked) [drawing 63, reference compound] |  |  |  | 0% | 0% |  |  |  |  |  | 
OC(Cc1ccccc1F)(Cn1ccnc1Cl)C1(Cl)CC1 (centres unmarked) [drawing 64, reference compound] |  |  |  | 0% | 0% |  |  |  |  |  | 
N#Cc1cn(CC(O)(Cc2ccccc2F)C2(Cl)CC2)cn1 (centres unmarked) [drawing 68, reference compound] |  |  |  | 0% | 0% |  |  |  |  |  | 

— patent US10231453B2, “5-substituted imidazole derivatives” (BAYER CROPSCIENCE AKTIENGESELLSCHAFT, priority 2015, dated 2019)
